Data reported in patent US7071190B2, “Inhibitors to tubulin polymerization” (Rigel Pharmaceuticals, Inc., priority 2002, dated 2006).
Entries after “also recorded” stand apart in the source; their conditions may differ.

How the values were obtained:
A549 (lung) tumors = assay: A549 (lung) human tumor xenograft in nude mice; type: in vivo, NCr nude (nu/nu) female mice; conditions: for Increase in tumor volume at 35 days normalized to tumor volume at start of drug treatment: vehicle approximately 7-fold; for %T/C (mean tumor volume treated vs. control ×100): A549 xenografts
Excerpt: (§1) A nude mouse/human carcinoma model was used to examine the effect of tubulin inhibitors on tumor growth and animal survival. Groups of immune deficient (nude) mice were implanted subcutaneously with suspensions of the human tumor lines A549 (lung) and SW480 (colon). When palpable tumors appeared and were of a preselected volume (approximately 40–150 mm^3), animals were subdivided into various treatment groups such that the variation in mean tumor volume of each group was within 10%. The animals were then treated daily with either control vehicle or Compound 1 administered by intraperitonel injection. Twice weekly, the volume of the tumors in each animal in each group was measured to gather information on tumor growth (volume) as a function of time. Systemic toxicity was assessed by measuring individual animal body weights, and toxicity was evaluated by examination of differences in body weight gain as a function of time. Tumor volumes and body weights were monitored for up to 35 days after the beginning of treatment.
Cell Lines: Human tumor lines A549 (lung) and SW480 (colon) were grown in cell culture medium (F-11) containing 10% Fetal Bovine Serum (FBS). The cells were kept at 37° C. in a humidified 5% CO2/air incubator. Antibiotics were not added to the medium.
NCr nude (nu/nu) female mice, age 3–4 weeks, were purchased from Taconic (Germantown, N.Y.). The animals were housed ten per cage in sterile filter-topped cages in ventilated cage racks and Microisolator™ cages. Upon arrival, they were quarantined for at least four working days before use. Temperature was maintained at 72±5° F. (19–24° C.) and relative humidity at 35–70%, and a 12-hour light/dark cycle was used. The mice were fed sterile, autoclavable, certified, Purina rodent chow ad libitum. Drinking water was also autoclaved.
After the animals were released from quarantine, the mice were injected subcutaneously in the right flank with either 5×10^6 A549 cells or 5×10^6 SW480 cells in complete medium at an injection volume of 0.1 ml. Tumor dimensions and body weights were measured two times per week. Vernier calipers were used to measure tumors in two planes, and tumor volume (V) was calculated as follows: V=(xy^2)/2,
The test articles were administered intraperitoneally generally at a dose level of 10 mg/kg. When the solubility of a molecule of the invention was relatively low, we used relatively higher levels of organic co-solvents for preparation of the dosing solution. The “vehicle” of the invention comprised of 7.1% ethanol/35.8% PEG400/57.1% phosphate buffer (v/v/v).
When the tumor volumes reached a predetermined size (mean tumor volume between about 40–150 mm^3), animals were added randomly to treatment groups of 12 mice each as follows: Animals were treated daily with the vehicle or Compound 1 (10 mg/kg), or with the positive control drug (Taxol) administered by intraperitoneal injection at the maximum tolerated dose of 20 mg/kg every fourth day, on Days 1, 4, 7, and 10.
The tumor volumes of the animals were monitored for evidence of shrinkage or growth delay for a period of up to 35 days after the start of treatment. Response to treatment was measured in two ways, depending on the tumor response to treatment. The first was the optimum T/C (%), calculated as follows: For each day the tumors were measured, the changes in median tumor volume (V) for each treated (T) and control (C) group were determined by subtracting the […] tumor volume on the first day of treatment (Day 0) from the median tumor volume on the specific observation day. These values were used to express a percent difference in size, [% T/C=(T/C)×100]. The minimum value is designated the optimum response to treatment. A value of 42% or less is considered active by National Cancer Institute (NCI) standards. […]

A549 cells = assay: Bromodeoxyuridine (BrdU) proliferation assay; type: cell-based, human
Method: In order to determine the antiproliferative activity of microtubule inhibitors, A549 cells were plated in 96 well plates at 2000 cells/well 24 hours prior to the addition of a compound of the invention in 80 ul growth media (F12K, 10% FBS, Pen/Strep). Prior to addition to cells, compounds were solubilized in 100% DMSO to 5 mM and serially diluted in 6 semi-log steps in 100% DMSO. The diluted compounds were added to cells by two 15.8-fold dilution steps, the first being a dilution into a 23% ethanol/H2O mixture and the second being a dilution into growth media. Finally, these dilutions were followed by a 1:1 dilution onto cells. The resulting final solvent concentration was 0.2% DMSO/0.75% ethanol. Compounds were tested at final concentrations of 10, 3, 1, 0.3, 0.1 and 0.03 uM. Forty-eight hours after the addition of compound, the effects on cellular proliferation were measured using a cell proliferation BrdU ELISA (Roche Molecular Biochemicals, Cat.#1 669 915).

[1] = system: MAP-rich tubulin protein from bovine brain; assay: Tubulin polymerization turbidity assay (A340 over time); type: biochemical; conditions: 10 μM compound, FIG. 1 (a), (b)
Method: FIG. 1. Tubulin polymerization inhibitory activity of the compounds of the invention was assayed by following the turbidity of a tubulin-containing solution over time. Polymerization of tubulin generates microtubules, the presence of which increases the absorbance of the assay solution over time. Effective inhibition manifests as a reduction of rate of absorbance increase at 340 nanometers. (a) 10 μM of compounds 19, 39, 43, 54 and 62, as well as 10 μM nocodazole as a positive control and DMSO as a negative control. (b) 10 μM of compounds 1, 88, 95, and 54, as well as 10 μM as well a positive controls 1 and 2 and DMSO as a negative control. (c) 0.4, 2.0 and 10 μM compound 54 versus 0.4, 2.0 and 10 μM nocodazole as a positive control and DMSO as a negative control.
Measurement of the tubulin polymerization can be achieved using known methodologies. For example, assays for tubulin polymerization may be performed using a kit from Cytoskeleton (Denver, Colo.) and as described by Tahir, S. K., et al, (2001) Cancer Res., 61:5480–5.
The assay measures tubulin polymerization as an increase in turbidity (A340) over time. Assays for tubulin polymerization were performed using a kit from Cytoskeleton (Denver, Colo.) and as described by Tahir, S. K., et al, (2001) Cancer Res., 61: 5480–5, incorporated herein by reference, and as described below.
To determine the ability of the compounds to inhibit microtubule polymerization in vitro, the following protocol was followed: (i) 70 μl ice-cold MAP-rich tubulin protein from bovine brain (1.5 mg/ml final concentration) was added to polymerization buffer (80 mM PIPES pH6.8, 1 mM EGTA, 1 mM MgCl2, 1 mM GTP) in a quartz microcuvette; (ii) 0.7 μl of DMSO or 100X stock of control (nocodazole) or test compound (thienopyrimidine) in DMSO were added to the cuvette; (iii) the contents were mixed by pipefting gently; (iv) the polymerization reaction was initiated by placing the cuvette in pre-warmed (37° C.) cuvette holder in Beckman spectrophotometer; (v) the absorbance was monitored at 340 nm at 30 second intervals for 20 minutes. Tubulin polymerization result in increased turbidity in the reaction solution, which is registered as an increase in absorbance at 340 nm. Inhibitors of tubulin polymerization are detected by a reduction in the rate, the initial slope, and/or extent of the turbidity change (i.e., max. absorbance at 340 nm) in plots of ΔA340 versus time.

SW480 tumors = assay: SW480 (colon) human tumor xenograft in nude mice; type: in vivo, NCr nude (nu/nu) female mice; conditions: 10 mg/kg daily intraperitoneal
Excerpt: as §1, with “treatment. […]” for “treatment.”
After the animals were released from quarantine, the mice were injected subcutaneously in the right flank with either 5×10^6 A549 cells or 5×10^6 SW480 cells in complete medium at an injection volume of 0.1 ml. Tumor dimensions and body weights were measured two times per week. […]

IC50 (A549 cells; Homo sapiens, A549, 48 h, BrdU ELISA 48 hours after addition of compound, tested 0.03-10 uM, cell line not given (A549 method; SW-480 and MDA-MB-231 also used), read-out: Assay Result (IC50μM)) [µM]	SMILES	Increase in tumor volume at 35 days normalized to tumor volume at start of drug treatment (A549 (lung) tumors; A549 xenograft, 20 mg/kg intraperitoneal every fourth day (Days 1, 4, 7, 10)) [fold]	%T/C (mean tumor volume treated vs. control ×100) (A549 (lung) tumors; 20 mg/kg intraperitoneal every fourth day) [%]	Increase in tumor volume at 35 days normalized to tumor volume at start of drug treatment (A549 (lung) tumors; A549 xenograft, 10 mg/kg daily intraperitoneal) [fold]	Mean tumor volume after 27 days of treatment (A549 (lung) tumors; A549 xenograft, 10 mg/kg daily, vehicle control 346.9±164.7 mm^3) [mm^3]	Effect on tumor growth (A549 (lung) tumors; A549 xenograft, Compound 1 10 mg/kg daily intraperitoneal, 10 mg/kg)	%T/C (mean tumor volume treated vs. control ×100) (A549 (lung) tumors; 10 mg/kg daily intraperitoneal) [%]	Activity ranking: most active compounds of the invention (A549 cells; antiproliferative activity)	Activity ranking: particularly active examples of the compounds of the invention (A549 cells; antiproliferative activity)	Inhibition of tubulin polymerization (reduction of rate of absorbance increase at 340 nanometers) [1]	Effect on tumor size (SW480 tumors)	Tumor volume (SW480 tumors; controls 677.9±574.3 mm^3) [mm^3]
–	CC(=O)O[C@H]1C(=O)[C@@]2(C)[C@H]([C@H](OC(=O)c3ccccc3)[C@]3(O)C[C@H](OC(=O)[C@H](O)[C@@H](NC(=O)c4ccccc4)c4ccccc4)C(C)=C1C3(C)C)[C@]1(OC(C)=O)CO[C@@H]1C[C@@H]2O [Taxol, reference compound]	4	59	–	–	–	–	–	–	–	–	–
0.664	S=C(NNc1ncnc2cc(-c3ccccc3)sc12)Nc1ccccc1 [Compound 1]	–	–	4	223.8±164.1	slowed tumor growth substantially; also recorded: substantial suppression of tumor growth	65	most active	particularly active	Inhibition activity is observed	did not result in a reduced tumor size	647.7±500.6
